The subject of experiment [1] is dermal fibroblasts of the reconstructed skin. Description: Proliferation of fibroblasts in whole reconstructed skin (propidium iodide nuclei count on frozen sections). The format is cell-based, human. To be noted: 5 mM; within 48 hours of treatment; vs control skin. From the text:
Rhamnose was studied on a model of whole reconstructed skin in order to measure its anti-ageing efficacy on the dermal compartment.
Briefly, the model of reconstructed skin used is that described by Bell et al. (Bell E. et al., The reconstitution of living skin, J. Invest. Dermatol., 1983, July; 81): it includes a dermal equivalent on which is reconstructed a multistratified epidermis; the dermal equivalent is manufactured from acid-soluble collagen, culture medium containing serum and normal adult human fibroblasts. After 5 days of shrinkage, this equivalent is inoculated with keratinocytes and then cultured for 6 days in immersion and for 7 days in emersion in order to obtain a multistratified and differentiated epidermis having a horny layer.
The reconstructed skin is treated with 5 mM rhamnose for 2 days and 5 days in the culture medium; after the treatment, the reconstructed skins are included in Tissue Tek in order to produce frozen sections 7 μm thick with a cryostat. […] Three frozen sections are prepared at random on each reconstructed skin; on each section, two microscopic fields (25× objective lens) are analysed by fluorescence microscopy and photographed. The dermal fibroblasts are thus counted for each reconstructed skin on six images in total representing the six microscopic fields considered. […]

Experiment [2] has as its system type I procollagen. Kind of experiment: Synthesis of procollagen 1 in reconstructed skin (indirect immunofluorescence). The format is cell-based, human. To be noted: for procollagen 1 synthesis: reconstructed skin. Here is the method:
Conventional detection via indirect immunofluorescence of type I procollagen in the dermis of the reconstructed skin was also performed on other series of frozen sections (anti-procoll 1 antibody (MAB 1912 Millipore)+FTIC-coupled conjugate (112-095-068 Jackson Immunoresearch)). In order to obtain bearings within the cutaneous architecture during the microscopic examination of the sections, the cell nuclei of the keratinocytes and fibroblasts are localized by staining them with propidium iodide, as described above. Three frozen sections are prepared at random on each reconstructed skin and on each section, and two microscopic fields (25× objective lens) are analysed by fluorescence microscopy and photographed. The levels of fluorescence proportional to the amount of type I procollagen are compared between the control skin and the skin treated with rhamnose.

Experiment [3] concerns keratinocytes (HaCat line). Description: Proliferation of keratinocytes in culture medium deficient in growth factors (Cyquant, Nile red, XTT markers). To be noted: medium depleted in growth factors; compared with untreated control. The experiment is classed as cell-based. Here is the method:
The keratinocytes (HaCat line) are cultured under two conditions: whole defined culture medium (standard condition) and culture medium deficient in growth factors. This deficient medium gives rise to a controlled delay in cell proliferation. Under these conditions, it is then possible to measure the effects of compounds capable of compensating for the deficiency in growth factors of the culture medium and thus of relaunching the cell multiplication and/or of stimulating cell metabolism.
The keratinocyte proliferation is measured by means of three markers on the same cell population: the level of DNA, which is proportional to the number of cells (Cyquant probe), the level of constituent polar lipids of cell membranes (Nile red probe) and the mitochondrial respiration, which reflects the general cell metabolism (XTT probe).
(Tetrazolium dyes change colour on reduction, which living cells bring about.)

For `C[C@H](O)[C@H](O)[C@@H](O)[C@@H](O)C=O` [rhamnose, Rhamnose], in experiment [1], the “growth of the dermal fibroblasts of the reconstructed skin” value was “induces stimulation of growth”. Moreover, the “green fluorescence proportional to the amount of type I procollagen” value in experiment [2] (1 mM for 120 hours, compared with control skin (FIG. 4)) is given as “marked increase in green fluorescence”. For the same compound, the “procollagen 1 synthesis” value in experiment [2] (1 mM) and in experiment [2] (5 mM) was “stimulation of procollagen 1 synthesis” throughout. Also, in experiment [3], the keratinocyte proliferation entry is reported as “activate keratinocyte proliferation”.

Values taken from patent US20100172944A1, “COMBINATION OF MONOSACCHARIDES WITH SUNSCREENS AND USE THEREOF” (L'OREAL, priority 2008, published 2010).
